# From PubChem BioAssay AID1259334 (Broad Institute, 2017)
# Calls of active or inactive are those of the source. No stated cut-off is given here; in the data, active means AC50 below about 11 µM.
# System: B cell line, TNFa signaling counterscreen reporter
# Assay: TNFa pathway inhibition counter-screen, B-lineage cells – dose response (AID 1259334);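 further: cells stimulated with TNFa after compound preincubation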
row,SMILES,AC50
1,N#C[C@H]1[C@H](c2ccc(-c3cccc(F)c3)cc2)[C@H](CO)N1C(=O)NC1CCCC1,> 20 µM (inactive)
2,CC(C)(C)CC(C)(C)c1ccc(O)c(Cc2ccc(Cl)cc2Cl)c1,5.5 µM
3,CCN(CC)C(=O)c1ccc(NC(=O)Nc2ccccc2F)cc1,1.86 µM
4,CC=Cc1cc2c(c(=O)o1)C(=O)C(O)C(C)O2 (stereo unspecified),10.4 µM
5,COc1ccc(CN2CC3(CN(C(=O)Cc4ccccc4)C3)c3c([nH]c4cc(OC)ccc34)[C@@H]2CO)cc1,> 20 µM (inactive)
6,CC1OC(OC2C(O)CC(OC3C(O)CC(OC4CCC5(C)C(CCC6C5CCC5(C)C(C7=CC(=O)OC7)C(O)CC65O)C4)OC3C)OC2C)CC(O)C1O (stereo unspecified),0.745 µM
7,CCCNC(=O)c1cc2c(c(-c3cccc(-c4cc5ccccc5o4)c3)n1)[C@H](CCO)N(C(=O)NC(C)C)C2,> 20 µM (inactive)
8,COc1ccc(C(=O)O/N=C2\C(=O)N(C)c3ccccc32)cc1,7.39 µM
9,C[C@@H]1CN([C@H](C)CO)C(=O)c2c(c3ccccc3n2C)-c2ccccc2CO[C@@H]1CN(C)C(=O)c1cc(Cl)cc(Cl)c1,8.14 µM
10,COC(=O)c1nn(-c2ccc(-c3ccccc3)cc2)cc1O,8.92 µM
11,C[C@H](CO)N1C[C@H](C)[C@H](CN(C)C(=O)Nc2cccc(Cl)c2Cl)OCc2ccccc2-c2c(n(C)c3ccccc23)C1=O,2.81 µM
12,N#C[C@H]1[C@H](c2ccc(C#Cc3ccc(F)cc3)cc2)[C@@H](CO)N1C(=O)C1CCC1,> 20 µM (inactive)
13,O=C1CCCCC1Sc1nnc(-c2ccc3c(c2)OCO3)o1 (stereo unspecified),0.871 µM
14,COc1ccc(/C=N/Nc2ncccc2[N+](=O)[O-])c(OC)c1,5.22 µM
15,N#Cc1c(Br)n(C2OC(CO)C(O)C2O)c2ncnc(N)c12 (stereo unspecified),1.16 µM
16,CC[C@@]1(O)C(=O)OCc2c1cc1n(c2=O)Cc2cc3c(CN(C)C)c(O)ccc3nc2-1,1.01 µM
17,C=C1C(=O)OC2C=C(CO)C3OC3C3OC3(C)CC(OC(=O)/C(=C/C)COC(C)=O)C12 (stereo unspecified),1.67 µM
18,c1ccc(OCCSc2nnc3sc4ccccc4n23)cc1,2.98 µM
19,O=C1/C(=C/c2ccccc2)C[C@@]2(O)C3Cc4ccc(O)c5c4[C@@]2(CCN3CC2CC2)[C@H]1O5,1.34 µM
20,C[C@@H]1CN([C@@H](C)CO)C(=O)c2c(c3ccccc3n2C)-c2ccccc2CO[C@@H]1CN(C)C(=O)Nc1ccccc1C(F)(F)F,7.57 µM
21,N#Cc1cccc(-c2ccc(C3[C@H]4CNC[C@@H]3N4Cc3ccc4c(c3)OCO4)cc2)c1 (stereo partly specified),6.32 µM
22,C[C@@H]1O[C@@H](O[C@H]2C[C@@H](O)[C@]3(CO)C4C(CC[C@]3(O)C2)[C@@]2(O)CC[C@H](C3=CC(=O)OC3)[C@@]2(C)C[C@H]4O)[C@H](O)[C@H](O)[C@H]1O (stereo partly specified),0.138 µM

row,SMILES,AC50
1,CC(=O)OCC(=O)C1(O)CCC2C3CCC4=CC(=O)CCC4(C)C3(Cl)C(O)CC21C (stereo unspecified),> 20 µM (inactive)
2,O=C1c2c(O)ccc(O)c2C(=O)c2c(NCCNCCO)ccc(NCCNCCO)c21,1.18 µM
3,Cn1cnc(CCNC(=O)C[C@@H]2CC[C@@H]3[C@H](COC[C@@H](O)CN3C(=O)Nc3ccc(C(F)(F)F)cc3)O2)c1,9.53 µM
4,O=C1C=CC2C3C(=O)N(c4ccccc4)C(=O)C3C1N2Cc1ccccc1 (stereo unspecified),1.52 µM
5,NCCOc1ccc(C23CC4CC(CC(C4)C2)C3)cc1,4.61 µM
6,CCCNC(=O)N1[C@@H](C#N)[C@H](c2ccc(-c3cccc(OC)c3)cc2)[C@@H]1CO,> 20 µM (inactive)
7,COc1ccc(C[C@H]2NC[C@H](O)[C@H]2OC(C)=O)cc1,0.0144 µM
8,CCc1csc(N2[C@H](C#N)[C@H](c3ccc(C#Cc4ccc(F)cc4)cc3)[C@H]2CO)n1,> 20 µM (inactive)
9,C[C@H](CO)N1C[C@H](C)[C@H](CN(C)CC2CCCCC2)OCCCC[C@H](C)Oc2ccc(NC(=O)Nc3ccc(C(F)(F)F)cc3)cc2C1=O,7.26 µM
10,c1ccc(-c2nnc(-c3ccccn3)nn2)nc1,11.4 µM
11,CC(C)(C)c1cc(C=C(C#N)C#N)cc(C(C)(C)C)c1O,1.22 µM
12,N#C[C@@H]1[C@H](c2ccc(C#Cc3ccccc3F)cc2)[C@@H](CO)N1C(=O)C1CC1,3.39 µM
13,Cc1ccc2c(c1)C(O)(CC(=O)/C=C/C=C/c1ccccc1)C(=O)N2 (stereo unspecified),> 20 µM (inactive)
14,CC12CCC3C(CCC4(O)CC(O)CCC34C=O)C1(O)CCC2C1=CC(=O)OC1 (stereo unspecified),3.75 µM
15,C[C@@H]1CCCCO[C@H](CN(C)CC2CCCCC2)[C@H](C)CN([C@@H](C)CO)C(=O)c2cc(NC(=O)Nc3ccc(C(F)(F)F)cc3)ccc2O1,> 20 µM (inactive)
16,COc1cccc2c1C(=O)c1c(O)c3c(c(O)c1C2=O)C[C@@](O)(C(C)=O)C[C@@H]3O[C@H]1C[C@H](N)[C@H](O)[C@H](C)O1,0.359 µM
17,C[C@@H]1CN([C@@H](C)CO)C(=O)c2ccccc2-c2ccccc2CO[C@H]1CN(C)Cc1ccccc1C(F)(F)F,7.43 µM
18,O=C(COc1cccnc1[N+](=O)[O-])c1ccc(Cl)s1,4.71 µM
19,N#C[C@H]1[C@H](c2ccc(C#Cc3ccccc3F)cc2)[C@H](CO)N1C(=O)C1CC1,11.3 µM
20,COC(=O)C1=C(C)NC(C)=C(C(=O)OCCCN2CCC(c3ccccc3)(c3ccccc3)CC2)[C@H]1c1cccc([N+](=O)[O-])c1,4.12 µM
21,CC(=O)OC1CC2(O)C3CCC4CC(O)CCC4(C)C3CCC2(C)C1C1=CC(=O)OC1 (stereo unspecified),0.839 µM
22,CCOc1ncccc1C(=O)OC(C)C(=O)Nc1ccc(Cl)cn1 (stereo unspecified),10.3 µM

row,SMILES,AC50
1,COc1ccc(C#Cc2ccc([C@H]3[C@H]4CN(C(=O)c5ccncc5)CCCCN4[C@H]3CO)cc2)cc1,8.29 µM
2,Cc1c(CCOC(=O)CC23CC4CC(CC(C)(C4)C2)C3)sc[n+]1CC(=O)c1ccccc1,1.81 µM
3,NC(c1csc(NC(=O)Nc2cccc(Cl)c2)n1)c1ccccc1Cl (stereo unspecified),7.41 µM
4,O=C(Cc1ccccc1)N1CC[C@@H]2[C@H]1c1cc(-c3cccc(F)c3)ccc1N[C@@H]2CO,10.7 µM
5,COCC(=O)N1[C@H](C#N)[C@H](c2ccc(C#Cc3ccccc3F)cc2)[C@H]1CO,2.23 µM
6,N#CC(C#N)=NNc1cccc(Cl)c1,9.25 µM
7,C[C@@H]1CN([C@@H](C)CO)C(=O)c2ccccc2-c2ccccc2CO[C@@H]1CN(C)Cc1ccc(Oc2ccccc2)cc1,> 20 µM (inactive)
8,COc1ccc2c3c(n(C)c2c1)[C@@H](CO)N(C(=O)Nc1ccc(F)cc1)CC31CN(Cc2ccccc2F)C1,> 20 µM (inactive)
9,O=C(NCCc1ccccc1)c1ccc2nccnc2c1,7.65 µM
10,O=C(Nc1cccc(N2C(=O)C=CC2=O)c1)c1cccs1,1.22 µM
11,CC(=O)OC1C(=O)OCC23CCC4(C)OC4C2OC2CC(OC(=O)C=CC=CC(=O)OCCC1C)C3(C)C21CO1 (stereo unspecified),0.00412 µM
12,Oc1c(Cl)cc(Cl)cc1Sc1cc(Cl)cc(Cl)c1O,3.41 µM
13,O=C1c2ccccc2C(=O)C1c1ccc2ccccc2n1,10.6 µM
14,O=C(Nc1ccc(C(F)(F)F)cc1)N1C[C@@H]2N[C@H](C1)C2c1ccc(-c2ccccc2)cc1 (stereo partly specified),3.28 µM
15,O=C1C=CC(=O)c2c(O)c(N3CCN(CCOCCO)CC3)c(Br)c(O)c21,1.33 µM
16,c1ccc2sc(-c3ccc4c(c3)OCO4)nc2c1,8.09 µM
17,C[C@H]1O[C@@H](O[C@H]2[C@@H](O)C[C@H](O[C@H]3[C@@H](O)C[C@H](O[C@H]4CC[C@]5(C)C6CC[C@]7(C)[C@@H](C8=CC(=O)OC8)CC[C@]7(O)C6CC[C@@H]5C4)O[C@@H]3C)O[C@@H]2C)C[C@H](O)[C@@H]1O (stereo partly specified),0.444 µM
18,COc1ccc(C(=O)CCN2CCc3cc(OC)c(OC)cc3C2)cc1,5.97 µM
19,O=C(Cn1ncc(Cl)c(Cl)c1=O)NC1CCCCC1,2.42 µM
20,COc1cccc(C#Cc2ccc([C@H]3[C@@H](C#N)N(C(=O)c4ccccn4)[C@@H]3CO)cc2)c1,10.3 µM
21,C[C@H](CO)N1C[C@H](C)[C@@H](CN(C)Cc2ccc(Oc3ccccc3)cc2)OCc2ccccc2-c2ccccc2C1=O,7.02 µM
22,Nc1ccc(-c2cccc3c(=O)cc(N4CCOCC4)oc23)cc1,8.56 µM

row,SMILES,AC50
1,Cc1noc(C)c1S(=O)(=O)N(C)C[C@H]1OCc2ccccc2-c2c(n(C)c3ccccc23)C(=O)N([C@@H](C)CO)C[C@H]1C,> 20 µM (inactive)
2,CCCCCN1C=CC(=C2C(=O)c3ccccc3C2=O)C=C1,0.316 µM
3,Cc1nc(C)c(C(=O)Nc2ncc([N+](=O)[O-])s2)o1,8.61 µM
4,CCCCn1c(NC(=O)c2ccc(Br)o2)c(S(=O)(=O)c2ccccc2)c2nc3ccccc3nc21,9.82 µM
5,Clc1ccc(C(Cn2ccnc2)OCc2ccsc2Cl)c(Cl)c1 (stereo unspecified),4.05 µM
6,COc1ccc(CNCCC(c2ccc(F)cc2)c2ccc(OC(C)C)cc2)cc1OC (stereo unspecified),3.5 µM
7,O=C(COC(=O)c1ccccc1)c1ccc2c(c1)OCCO2,0.986 µM
8,N#C[C@@H]1[C@H](c2ccc(C#Cc3ccc(F)cc3)cc2)[C@@H](CO)N1C(=O)C1CCC1,10.7 µM
9,c1ccc(-c2nc(-c3ccccn3)no2)cc1,3.9 µM
10,c1cc(-c2cnn3cc(-c4ccc(OCCN5CCCCC5)cc4)cnc23)ccn1,1.13 µM
11,CO[C@@H](CN(C)S(=O)(=O)c1ccc(Cl)cc1)[C@H](C)CN(Cc1ccccc1Cl)[C@@H](C)CO,> 20 µM (inactive)
12,CC1CC(C)C(=O)C(C(CC2CC(=O)NC(=O)C2)OC(=O)CC(=O)c2ccccc2)C1 (stereo unspecified),2.17 µM
13,C[C@@H]1CN([C@H](C)CO)C(=O)c2cc(NS(=O)(=O)c3cccs3)ccc2O[C@@H](C)CCCCO[C@H]1CN(C)Cc1ccc(Cl)c(Cl)c1,> 20 µM (inactive)
14,C[C@H]1CN([C@@H](C)CO)C(=O)c2ccccc2-c2ccccc2CO[C@@H]1CN(C)Cc1ccccc1C(F)(F)F,7.26 µM
15,O=C(C#Cc1ccccc1)c1ccccc1,5.68 µM
16,Oc1ccc2c(c1)OCC1(O)Cc3cc(O)c(O)cc3C21 (stereo unspecified),2.18 µM
17,CC(=O)OCC12CC(OC(=O)CC(C)C)C(C)=CC1OC1C(O)C(OC(C)=O)C2(C)C12CO2 (stereo unspecified),0.00346 µM
18,COc1cccc(S(=O)(=O)N(C)C[C@H]2OCc3ccccc3-c3c(n(C)c4ccccc34)C(=O)N([C@@H](C)CO)C[C@@H]2C)c1,> 20 µM (inactive)
19,CC1=C(C#N)c2nc(N)c(C#N)c(C)c2/C1=C\c1ccccc1,3.57 µM
20,C[C@@H]1CN([C@@H](C)CO)C(=O)c2c(c3ccccc3n2C)-c2ccccc2CO[C@H]1CN(C)Cc1ccccc1,5.53 µM
